From PubChem BioAssay AID248 (DTP/NCI, 2004)
Several values for one entry are separate records, joined by “and”; a condition that tells them apart may be missing. Equal values may be shown once. Inconclusive results and toxic doses are left out.

Test system: L1210 leukemia ip in BDF1 mice, survival T/C
Assay: NCI In Vivo Anticancer Drug Screen. Data for tumor model L1210 Leukemia (intraperitoneal) in B6D2F1 (BDF1) mice
Details: endpoint: mean survival time, higher = longer survival
Summary of the method: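 Value reflects the ratio of survival in compound-treated mice to survival in vehicle-treated controls, with both groups carrying the same transplanted tumor.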

[1] = dose: 50.0 mg/kg/injection, schedule: Q01DX001 (ip), vehicle: carboxymethylcellulose (CMC)
[2] = dose: 100.0 mg/kg/injection, schedule: Q01DX001 (ip), vehicle: carboxymethylcellulose (CMC)
[3] = dose: 200.0 mg/kg/injection, schedule: Q01DX001 (ip), vehicle: carboxymethylcellulose (CMC)
[4] = dose: 100.0 mg/kg/injection, schedule: Q01DX001 (ip), vehicle: saline
[5] = dose: 200.0 mg/kg/injection, schedule: Q01DX001 (ip), vehicle: saline
[6] = dose: 400.0 mg/kg/injection, schedule: Q01DX001 (ip), vehicle: saline
[7] = dose: 100.0 mg/kg/injection, schedule: Q04DX002 (ip), vehicle: saline
[8] = dose: 200.0 mg/kg/injection, schedule: Q04DX002 (ip), vehicle: saline
[9] = dose: 400.0 mg/kg/injection, schedule: Q01DX001 (ip), vehicle: carboxymethylcellulose (CMC)
[10] = dose: 100.0 mg/kg/injection, schedule: Q04DX003 (ip), vehicle: saline
[11] = dose: 200.0 mg/kg/injection, schedule: Q04DX003 (ip), vehicle: saline
[12] = dose: 400.0 mg/kg/injection, schedule: Q04DX003 (ip), vehicle: saline
[13] = dose: 100.0 mg/kg/injection, schedule: Q04DX003 (ip), vehicle: saline with Tween-80
[14] = dose: 200.0 mg/kg/injection, schedule: Q04DX003 (ip), vehicle: saline with Tween-80
[15] = dose: 400.0 mg/kg/injection, schedule: Q04DX003 (ip), vehicle: saline with Tween-80
[16] = dose: 100.0 mg/kg/injection, schedule: Q01DX009 (ip), vehicle: saline

## Cn1c(=O)c2ncn(CC3CCCCC3)c2n(C)c1=O
[1]
  T/C: 87 % of control
[2]
  T/C: 90 % of control
[3]
  T/C: 86 % of control

## CC(=O)OC1C2C=CC(C2)C1OC(C)=O (stereo not given)
dose: 100.0 mg/kg/injection, schedule: Q01DX001 (ip), vehicle: other
  T/C: 100 % of control
dose: 200.0 mg/kg/injection, schedule: Q01DX001 (ip), vehicle: other
  T/C: 106 % of control
dose: 400.0 mg/kg/injection, schedule: Q01DX001 (ip), vehicle: other
  T/C: 112 % of control

## O=C(c1ccco1)C1Cc2ccccc2C1=O (stereo not given)
dose: 100.0 mg/kg/injection, schedule: Q01DX009 (ip), vehicle: Klucel (hydroxypropylcellulose) (HPC)
  T/C: 95 % of control
dose: 100.0 mg/kg/injection, schedule: Q04DX003 (ip), vehicle: alcohol
  T/C: 109 % of control
dose: 200.0 mg/kg/injection, schedule: Q01DX009 (ip), vehicle: Klucel (hydroxypropylcellulose) (HPC)
  T/C: 94 % of control
dose: 200.0 mg/kg/injection, schedule: Q04DX003 (ip), vehicle: alcohol
  T/C: 104 % of control
dose: 400.0 mg/kg/injection, schedule: Q01DX009 (ip), vehicle: Klucel (hydroxypropylcellulose) (HPC)
  T/C: 97 % of control
dose: 400.0 mg/kg/injection, schedule: Q04DX003 (ip), vehicle: alcohol
  T/C: 103 % of control

## NC(=O)Nc1cccc(Cl)c1
dose: 100.0 mg/kg/injection, schedule: Q04DX002 (ip), vehicle: gum acacia
  T/C: 106 % of control
dose: 200.0 mg/kg/injection, schedule: Q04DX002 (ip), vehicle: gum acacia
  T/C: 98 % of control
dose: 400.0 mg/kg/injection, schedule: Q04DX002 (ip), vehicle: gum acacia
  T/C: 106 % of control

## CC(=O)OC1CCC2(C)C(=CCC3C2CCC2(C)C3CC3C2C(c2ccccc2)=NN3c2ccccc2)C1 (stereo not given)
dose: 6.0 mg/kg/injection, schedule: Q04DX002 (ip), vehicle: Klucel (hydroxypropylcellulose) (HPC)
  T/C: 93 % of control
dose: 12.5 mg/kg/injection, schedule: Q04DX002 (ip), vehicle: Klucel (hydroxypropylcellulose) (HPC)
  T/C: 104 % of control
dose: 25.0 mg/kg/injection, schedule: Q04DX002 (ip), vehicle: Klucel (hydroxypropylcellulose) (HPC)
  T/C: 96 % of control
dose: 50.0 mg/kg/injection, schedule: Q04DX002 (ip), vehicle: Klucel (hydroxypropylcellulose) (HPC)
  T/C: 96 % of control

## CC(=O)c1cc2c(cc1C)OCO2
[4]
  T/C: 103 % of control
[5]
  T/C: 97 % of control
[6]
  T/C: 101 % of control

## COc1cc2c(cc1O)C(CCc1cc(OC)c(OC)c(OC)c1)=NCC2
dose: 50.0 mg/kg/injection, schedule: Q04DX002 (ip), vehicle: saline
  T/C: 101 % of control
[7]
  T/C: 104 % of control
[8]
  T/C: 104 % of control

## OCC1OC(n2cc(Br)c3c(Cl)ncnc32)C(O)C1O (stereo not given)
[1]
  T/C: 117 % of control
[2]
  T/C: 87 % of control
[3]
  T/C: 93 % of control
[9]
  T/C: 112 % of control

## COc1cc(/C=N/N(c2ccccc2)C2CCS(=O)(=O)C2)ccc1O (stereo not given)
[7]
  T/C: 93 % of control
[8]
  T/C: 101 % of control
dose: 400.0 mg/kg/injection, schedule: Q04DX002 (ip), vehicle: saline
  T/C: 93 % of control

## CCOP(N)(=O)SCC (stereo not given)
dose: 5.0 mg/kg/injection, schedule: Q01DX001 (ip), vehicle: saline
  T/C: 110 % of control

## CSc1ccc(OC(=O)Oc2ccc(SC)cc2)cc1
[2]
  T/C: 97 % of control
[3]
  T/C: 95 % of control
[9]
  T/C: 92 % of control

## CCOC(=O)Nc1cc(NCC(O)CN(C)c2ccc(OC)cc2)c([N+](=O)[O-])c(N)n1 (stereo not given)
dose: 100.0 mg/kg/injection, schedule: Q01DX001 (ip), vehicle: saline with Tween-80
  T/C: 95 % of control
dose: 200.0 mg/kg/injection, schedule: Q01DX001 (ip), vehicle: saline with Tween-80
  T/C: 93 % of control
dose: 400.0 mg/kg/injection, schedule: Q01DX001 (ip), vehicle: saline with Tween-80
  T/C: 88 % of control

## CC(C)=CC(=O)OC1C2C(CC(C)C3C(O)CC(=O)C13C)OC(=O)C2C (stereo not given)
[4]
  T/C: 107 % of control
[5]
  T/C: 100 % of control
[6]
  T/C: 97 % of control

## Cc1nc(SCc2ccccc2)nc(N)c1CN
dose: 50.0 mg/kg/injection, schedule: Q04DX003 (ip), vehicle: Klucel (hydroxypropylcellulose) (HPC)
  T/C: 113 % of control
dose: 100.0 mg/kg/injection, schedule: Q01DX001 (ip), vehicle: Klucel (hydroxypropylcellulose) (HPC)
  T/C: 93 % of control
dose: 100.0 mg/kg/injection, schedule: Q04DX003 (ip), vehicle: Klucel (hydroxypropylcellulose) (HPC)
  T/C: 100 % of control
dose: 200.0 mg/kg/injection, schedule: Q01DX001 (ip), vehicle: Klucel (hydroxypropylcellulose) (HPC)
  T/C: 98 % of control
dose: 200.0 mg/kg/injection, schedule: Q04DX003 (ip), vehicle: Klucel (hydroxypropylcellulose) (HPC)
  T/C: 104 % of control

## COC(=O)C1=C(C(=O)OC)[N+](C)(C)N=C1[O-]
dose: 25.0 mg/kg/injection, schedule: Q04DX003 (ip), vehicle: saline
  T/C: 110 % of control
dose: 50.0 mg/kg/injection, schedule: Q04DX003 (ip), vehicle: saline
  T/C: 104 % of control
[10]
  T/C: 95 % of control and 101 % of control

## CC1C(C)(C)P(=O)(NCCOP2(=O)C(C)(C)C(C)C2(C)C)C1(C)C (stereo not given)
[10]
  T/C: 100 % of control
[11]
  T/C: 92 % of control
[12]
  T/C: 96 % of control

## CCOC(=O)c1cc(=O)ss1
dose: 50.0 mg/kg/injection, schedule: Q01DX009 (ip), vehicle: saline with Tween-80
  T/C: 100 % of control
dose: 100.0 mg/kg/injection, schedule: Q01DX009 (ip), vehicle: saline with Tween-80
  T/C: 101 % of control
[13]
  T/C: 96 % of control
dose: 200.0 mg/kg/injection, schedule: Q01DX009 (ip), vehicle: saline with Tween-80
  T/C: 92 % of control
[14]
  T/C: 97 % of control
dose: 400.0 mg/kg/injection, schedule: Q01DX009 (ip), vehicle: saline with Tween-80
  T/C: 94 % of control
[15]
  T/C: 106 % of control

## CN1CCC=C(C(=O)N2c3ccccc3CCc3ccccc32)C1
dose: 50.0 mg/kg/injection, schedule: Q01DX009 (ip), vehicle: saline
  T/C: 107 % of control
[16]
  T/C: 95 % of control
[10]
  T/C: 103 % of control
[11]
  T/C: 92 % of control

## O=c1[nH]cnc2c1nnn2C1OC(CO)C(O)C1O (stereo not given)
dose: 90.0 mg/kg/injection, schedule: Q01DX009 (ip), vehicle: saline
  T/C: 155 % of control and 160 % of control
dose: 135.0 mg/kg/injection, schedule: Q01DX009 (ip), vehicle: saline
  T/C: 163 % of control

## O=S(=O)(c1ccc(Cl)cc1)c1ccc(Cl)cc1
[16]
  T/C: 91 % of control
[13]
  T/C: 102 % of control
[10]
  T/C: 104 % of control
dose: 200.0 mg/kg/injection, schedule: Q01DX009 (ip), vehicle: saline
  T/C: 95 % of control
[14]
  T/C: 107 % of control
[11]
  T/C: 95 % of control
dose: 400.0 mg/kg/injection, schedule: Q01DX009 (ip), vehicle: saline
  T/C: 93 % of control
[15]
  T/C: 95 % of control
[12]
  T/C: 106 % of control

## COC1=CCC23C(=O)C=CC(=O)C2(C1)C(=O)c1ccccc1C3=O (stereo not given)
dose: 3.12 mg/kg/injection, schedule: Q01DX005 (ip), vehicle: saline with Tween-80
  T/C: 110 % of control
dose: 6.25 mg/kg/injection, schedule: Q01DX005 (ip), vehicle: saline with Tween-80
  T/C: 103 % of control
dose: 12.5 mg/kg/injection, schedule: Q01DX005 (ip), vehicle: saline with Tween-80
  T/C: 97 % of control

## NNC(=O)CNc1ccc(F)c(C(F)(F)F)c1
dose: 100.0 mg/kg/injection, schedule: Q04DX002 (ip), vehicle: Klucel (hydroxypropylcellulose) (HPC)
  T/C: 107 % of control
dose: 200.0 mg/kg/injection, schedule: Q04DX002 (ip), vehicle: Klucel (hydroxypropylcellulose) (HPC)
  T/C: 118 % of control
